The source of these data is publication PMC2957182 (Molecular and cellular endocrinology, 2010).

One assay concerns Akt. The note with it: HNMPA-(AM3) 500 μM, ILP3 10 pmol or ILP4 20 pmol, 2 h, immunoblot. (In western blotting, separated proteins are transferred to a membrane and probed.)
A further assay concerns ovaries. The note with it: bovine insulin; ref Riehle and Brown, 1999; cited from earlier work.

As to `CC(=O)OCOC(c1ccc2ccccc2c1)P(=O)(OCOC(C)=O)OCOC(C)=O` (centres unmarked) [HNMPA-(AM3)], the “Akt phosphorylation in ovaries with ILPs plus HNMPA-(AM3)” value with Akt is on record as “no change in phosphorylation”.

Take bovine insulin: bovine insulin: in the assay with ovaries, the “Ecdysteroid production by ovaries” value is listed as “stimulates ecdysteroid production”.
